One assay deals with Bacillus subtilis. The experiment in a line: Antimicrobial activity against Bacillus subtilis assessed as bacterial growth inhibition incubated for 24 hrs by absorbance based assay. It counts as functional, organism-based.
For another assay, the system named is Saccharomyces cerevisiae. The experiment in a line: Antimicrobial activity against Saccharomyces cerevisiae assessed as fungal growth inhibition by absorbance based assay. It counts as functional, organism-based.
Assay [1] has as its system B16. The experiment in a line: Cytotoxicity against mouse B16 cells assessed as inhibition of cell proliferation at 20 ug/ml incubated for 48 hrs by MTS assay. It counts as functional, cell-based. As to conditions: dose 20.0 µg/ml.
For another assay, the system named is Candida albicans. The experiment in a line: Antimicrobial activity against Candida albicans assessed as fungal growth inhibition by absorbance based assay. The assay is classed as functional, organism-based.
For the next assay, the system named is Staphylococcus aureus. The experiment in a line: Antimicrobial activity against Staphylococcus aureus assessed as bacterial growth inhibition incubated for 24 hrs by absorbance based assay. The assay is classed as functional, organism-based.
Assay [2] deals with HepG2. The experiment in a line: Cytotoxicity against human HepG2 cells assessed as inhibition of cell proliferation at 20 ug/ml incubated for 48 hrs by MTS assay. The assay is classed as functional, cell-based. As to conditions: dose 20.0 µg/ml.
A further assay deals with Escherichia coli. The experiment in a line: Antimicrobial activity against Escherichia coli assessed as bacterial growth inhibition incubated for 24 hrs by absorbance based assay. The assay is classed as functional, organism-based.
For assay [3], the system named is HCT-116. The experiment in a line: Cytotoxicity against human HCT-116 cells assessed as inhibition of cell proliferation at 20 ug/ml incubated for 48 hrs by MTS assay. As to conditions: dose 20.0 µg/ml. It counts as functional, cell-based.
In assay [4] the test system is B16. The experiment in a line: Cytotoxicity against mouse B16 cells assessed as inhibition of cell proliferation incubated for 48 hrs by MTS assay. The assay is classed as functional, cell-based. As to conditions: B16, 48 h.
Assay [5] has as its system HepG2. The experiment in a line: Cytotoxicity against human HepG2 cells assessed as inhibition of cell proliferation incubated for 48 hrs by MTS assay. The assay is classed as functional, cell-based. As to conditions: HepG2, 48 h.
Assay [6] deals with HCT-116. The experiment in a line: Cytotoxicity against human HCT-116 cells assessed as inhibition of cell proliferation incubated for 48 hrs by MTS assay. It counts as functional, cell-based. As to conditions: HCT-116, 48 h.

Activity calls are given as the source filed them. The rule behind the calls is not given here.

As to `C/C=C/CC[C@@H](O)[C@H](O)c1cc(OC)cc(=O)o1`, the inhibition result in the assay with Bacillus subtilis, in the assay with Saccharomyces cerevisiae, in the assay with B16 [1], in the assay on Candida albicans, with Staphylococcus aureus and in the assay with HepG2 [2] was “inactive” each time. The inhibition entry in the assay on Escherichia coli and with HCT-116 [3] was “inactive” throughout.

As for `CCCCC[C@@H](O)[C@H](O)c1cc(OC)cc(=O)o1`, the inhibition result with Bacillus subtilis, with Saccharomyces cerevisiae, in the assay on B16 [1], in the assay with Candida albicans, in the assay with Staphylococcus aureus and with HepG2 [2] was “inactive” throughout. The inhibition result in the assay on Escherichia coli and in the assay on HCT-116 [3] was “inactive” in each case.

Turning to `C/C=C/CC/C=C/c1cc(OC)cc(=O)o1`, the inhibition entry in the assay on Bacillus subtilis, in the assay on Saccharomyces cerevisiae, in the assay with Candida albicans, with Staphylococcus aureus and in the assay on Escherichia coli was “inactive” throughout. Also, the IC50 amounted to 38.5 µM in the assay with B16 [4], 41.8 µM in the assay on HepG2 [5] and 21.7 µM in the assay on HCT-116 [6].

Take `CCCCC/C=C/c1cc(OC)cc(=O)o1`: the inhibition result in the assay on Bacillus subtilis, with Saccharomyces cerevisiae, in the assay with B16 [1], in the assay with Candida albicans, in the assay on Staphylococcus aureus and in the assay on HepG2 [2] was “inactive” each time. Further, the inhibition result with Escherichia coli and with HCT-116 [3] was “inactive” each time.
